Earlier results, collected in US20140066461A1, “METHODS FOR DIAGNOSING AND TREATING SCHIZOPHRENIA” (priority 2012, published 2014).

How the values were obtained:
[1] = test system: protein tyrosine phosphatases
BTK = BTK (Homo sapiens, UniProt Q06187)
[2] = test system: patients with previously treated mantle cell lymphoma
rats [3] = test system: rats
rats [4] = test system: rats; remark: listed apart in the source

BTK, sequence (Q06187 whole entry): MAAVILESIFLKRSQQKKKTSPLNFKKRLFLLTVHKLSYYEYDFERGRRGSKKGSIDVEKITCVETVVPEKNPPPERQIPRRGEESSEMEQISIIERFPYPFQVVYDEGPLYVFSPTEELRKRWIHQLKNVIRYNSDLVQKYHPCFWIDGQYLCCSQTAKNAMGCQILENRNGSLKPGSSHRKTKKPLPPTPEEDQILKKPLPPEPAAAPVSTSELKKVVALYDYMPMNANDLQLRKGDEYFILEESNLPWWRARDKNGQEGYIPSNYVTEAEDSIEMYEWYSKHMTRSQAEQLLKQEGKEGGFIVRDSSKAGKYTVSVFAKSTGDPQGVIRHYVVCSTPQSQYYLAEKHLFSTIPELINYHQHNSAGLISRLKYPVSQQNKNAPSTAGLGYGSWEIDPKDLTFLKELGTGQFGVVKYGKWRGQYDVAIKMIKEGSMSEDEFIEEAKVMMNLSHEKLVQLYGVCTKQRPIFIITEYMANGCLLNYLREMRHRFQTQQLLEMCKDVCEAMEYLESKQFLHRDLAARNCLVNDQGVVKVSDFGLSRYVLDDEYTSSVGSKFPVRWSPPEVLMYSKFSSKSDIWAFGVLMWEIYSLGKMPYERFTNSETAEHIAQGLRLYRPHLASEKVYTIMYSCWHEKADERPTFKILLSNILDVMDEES

For `Cc1ccc(S(=O)(=O)/C=C/C#N)cc1` [BAY-11-7082], the “inhibition of protein tyrosine phosphatases” value [1] is listed as “act as inhibitors of protein tyrosine phosphatases”.
For `Nc1ncnc2c1c(-c1ccc(Oc3ccccc3)cc1)nn2C1CCCC1` [PCI-29732], the “mode of BTK inhibition” value (BTK) is listed as “reversible BTK inhibitor”.
In the case of `C=CC(=O)N1CCC[C@@H](n2nc(-c3ccc(Oc4ccccc4)cc3)c3c(N)ncnc32)C1` [PCI-32765], the complete responses ([2]; 560 mg/day) is given as “About 15%”, the “objective responses (partial plus complete)” value ([2]; 560 mg/day, 51 patients evaluable for efficacy, early in the trial) is given as 69% and the “effect on lymph nodes” value ([2]; MCL study, accompanied by large increases in lymphocyte counts in circulation) is given as “rapid shrinkage of lymph nodes swollen with malignant cells”. The “patients exhibiting complete or partial responses” value ([2]; preliminary data, ongoing phase II trial) was “About two-thirds” and the toxicity ([2]; small trials, mantle cell lymphoma) was “low toxicity”.
For `O=C(CCCN1CCC(O)(c2ccc(Cl)cc2)CC1)c1ccc(F)cc1` [haloperidol], the “effects of amphetamine on attention” value (rats [3]) is given as “reverse the effects of amphetamine on attention in rats” and the “picrotoxin effect on prepulse inhibition of startle” value (rats [4]) is given as “reduces this effect”.
